Reference: US11780826B2 (Amgen Inc., priority 2017, dated 2023)

Tested on: Bovine cardiac myofibrils
Experiment: In vitro model of dose-dependent myofibril ATPase modulation (AC1.4, pyruvate kinase/lactate dehydrogenase-coupled ATPase assay at pCa25)
Type: biochemical
Conditions: concentration at which ATPase activity was 1.4-fold higher than the bottom of the dose curve, mean of a minimum of two independent tests
How it was run: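 Compound dilutions were premixed with myofibrils, coupling enzymes, EGTA and CaCl2, then the reaction was started with an equal volume carrying ATP (final 1 mM), NADH and PEP. ATP turnover was followed at 340 nm, and dose responses were fit to a four-parameter equation.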

AC1.4 [µM] | Compound
8.59 | N#CC1CN(S(=O)(=O)N2CCC[C@H](C(=O)N3CCC[C@@H]3C(=O)NCc3cccc(OC(F)F)c3)C2)C1 [Example 781, 1-(((3S)-1-((3-cyano-1-azetidinyl)sulfonyl)-3-piperidinyl)carbonyl)-N-(3-(difluoromethoxy)benzyl)-D-prolinamide]
8.6395 | CC(=O)NC1CN(S(=O)(=O)N2CCC[C@H](C(=O)N3CCC[C@@H]3C(=O)NCc3ccc(C(F)(F)F)cc3)C2)C1 [Example 782, 1-(((3S)-1-((3-(acetylamino)-1-azetidinyl)sulfonyl)-3-piperidinyl)carbonyl)-N-(4-(trifluoromethyl)benzyl)-D-prolinamide]
8.7825 | COc1ccc2c(c1)[C@H](NC(=O)[C@H]1CCCN1C(=O)[C@H]1CCCN(S(=O)(=O)N3CC(C#N)C3)C1)CCO2 [Example 783, 1-(((3S)-1-((3-cyano-1-azetidinyl)sulfonyl)-3-piperidinyl)carbonyl)-N-((4R)-6-methoxy-3,4-dihydro-2H-chromen-4-yl)-D-prolinamide]
8.852 | COc1cccc(C(=O)N2CCC[C@@H]2C(=O)N[C@@H](c2ccc(C(F)(F)F)cc2F)C2CC2)c1 [Example 784, N-((R)-cyclopropyl(2-fluoro-4-(trifluoromethyl)phenyl)methyl)-1-(3-methoxybenzoyl)-D-prolinamide]
8.8883 | C[C@@H](NC(=O)[C@H]1CCCN1C(=O)c1cccc(S(=O)(=O)N2CC(C#N)C2)c1)c1ccccc1 [Example 785, 1-((3-((3-cyano-1-azetidinyl)sulfonyl)phenyl)carbonyl)-N-((1R)-1-phenylethyl)-D-prolinamide]
8.9175 | CCc1ccnc(C(=O)N2[C@@H](C(=O)N[C@@H](c3ccc(C(F)(F)F)cc3F)C3COC3)C[C@H]3C[C@H]32)c1 [Example 786, (1R,3R,5R)-2-((4-ethyl-2-pyridinyl)carbonyl)-N-((R)-(2-fluoro-4-(trifluoromethyl)phenyl)(3-oxetanyl)methyl)-2-azabicyclo[3.1.0]hexane-3-carboxamide]
8.931 | O=C(NCc1ccc(C(F)(F)F)cc1)[C@H]1CCCN1C(=O)[C@H]1CCCN(S(=O)(=O)N2CC(CC(F)(F)F)C2)C1 [Example 787, 1-(((3S)-1-((3-(2,2,2-trifluoroethyl)-1-azetidinyl)sulfonyl)-3-piperidinyl)carbonyl)-N-(4-(trifluoromethyl)benzyl)-D-prolinamide]
8.9395 | COCC1CN(S(=O)(=O)N2CCC[C@H](C(=O)N3CCC[C@@H]3C(=O)NCc3ccc(C(F)(F)F)cc3)C2)C1 [Example 788, 1-(((3S)-1-((3-(methoxymethyl)-1-azetidinyl)sulfonyl)-3-piperidinyl)carbonyl)-N-(4-(trifluoromethyl)benzyl)-D-prolinamide]
8.9635 | O=C(N[C@@H](c1ccc(C(F)(F)F)cc1F)C1COC1)[C@H]1C[C@H]2C[C@H]2N1C(=O)c1cccc(C(F)(F)F)n1 [Example 789, (1R,3R,5R)-N-((R)-(2-fluoro-4-(trifluoromethyl)phenyl)(3-oxetanyl)methyl)-2-((6-(trifluoromethyl)-2-pyridinyl)carbonyl)-2-azabicyclo[3.1.0]hexane-3-carboxamide]
8.9725 | N#CC1CN(S(=O)(=O)N2CCN[C@H](C(=O)N3CCC[C@@H]3C(=O)NCc3cc(Cl)cc(Cl)c3)C2)C1 [Example 790, 1-(((2S)-4-((3-cyano-1-azetidinyl)sulfonyl)-2-piperazinyl)carbonyl)-N-(3,5-dichlorobenzyl)-D-prolinamide]
9.071 | Cc1ccc([C@H](NC(=O)[C@H]2C[C@H](F)CN2C(=O)c2cccc(S(C)(=O)=O)c2)C2CC2)cc1F [Example 792, (4S)-N-((R)-cyclopropyl(3-fluoro-4-methyIphenyl)methyl)-4-fluoro-1-(3-(methylsulfonyl)benzoyl)-D-prolinamide]
9.129 | CCS(=O)(=O)c1cccc(C(=O)N2CCC[C@@H]2C(=O)NCc2ccc(C(F)(F)F)cc2)c1 [Example 793, 1-(3-(ethylsulfonyl)benzoyl)-N-(4-(trifluoromethyl)benzyl)-D-prolinamide]
9.2425 | CC(C)(O)c1cccc(C(=O)N2CCC[C@@H]2C(=O)N[C@@H](c2ccc(C(F)(F)F)cc2F)C2CC2)c1 [Example 794, N-((R)-cyclopropyl(2-fluoro-4-(trifluoromethyl)phenyl)methyl)-1-(3-(2-hydroxy-2-propanyl)benzoyl)-D-prolinamide]
9.3255 | CS(=O)(=O)c1cc(C(=O)N2[C@@H](C(=O)N[C@@H](c3ccc(Cl)c(F)c3)C3CC3)C[C@H]3C[C@H]32)ccn1 [Example 795, (1R,3R,5R)-N-((R)-(4-chloro-3-fluorophenyl)(cyclopropyl)methyl)-2-((2-(methylsulfonyl)-4-pyridinyl)carbonyl)-2-azabicyclo[3.1.0]hexane-3-carboxamide]
9.426 | CC(=O)N1CC(F)(c2cccc(C(=O)N3CCC[C@@H]3C(=O)N[C@@H](c3ccc(C(F)(F)F)cc3F)C3CC3)c2)C1 [Example 796, 1-(3-(l-acetyl-3-fluoro-3-azetidinyl)benzoyl)-N-((R)-cyclopropyl(2-fluoro-4-(trifluoromethyl)phenyl)methyl)-D-prolinamide]
9.447 | Cc1cncc(C(=O)N2[C@@H](C(=O)N[C@@H](c3cc(F)c(C(F)(F)F)cc3F)C3CC3)C[C@H]3C[C@H]32)c1 [Example 797, (1R,3R,5R)-N-((R)-cyclopropyl(2,5-difluoro-4-(trifluoromethyl)phenyl)methyl)-2-((5-methyl-3-pyridinyl)carbonyl)-2-azabicyclo[3.1.0]hexane-3-carboxamide]
9.448 | O=C(NCc1ccc(C(F)(F)F)nc1)[C@H]1CCCCN1C(=O)c1cccc(S(=O)(=O)N2CC(F)(F)C2)c1 [Example 798, (2R)-1-((3-((3,3-difluoro-1-azetidinyl)sulfonyl)phenyl)carbonyl)-N-((6-(trifluoromethyl)-3-pyridinyl)methyl)-2-piperidinecarboxamide]
9.4535 | N#CC1CN(S(=O)(=O)N2CCC[C@H](C(=O)N3CCC[C@@H]3C(=O)NC3CCC3C(F)(F)F)C2)C1 (stereo partly drawn) [Example 799, (2R)-1-((S)-1-((3-cyanoazetidin-1-yl)sulfonyl)piperidine-3-carbonyl)-N-(2-(trifluoromethyl)cyclobutyl)pyrrolidine-2-carboxamide]
9.537 | O=C(NCc1ccc(C(F)(F)F)cc1)[C@H]1CCCN1C(=O)[C@H]1CCCN(S(=O)(=O)N2CCC23CCC3)C1 [Example 800, 1-(((3S)-1-(1-azaspiro[3.3]hept-1-ylsulfonyl)-3-piperidinyl)carbonyl)-N-(4-(trifluoromethyl)benzyl)-D-prolinamide]
9.578 | N#CC1CN(S(=O)(=O)N2CCC[C@H](C(=O)N3[C@@H]4C[C@@H]4C[C@H]3C(=O)NCc3ccc(C(F)(F)F)cc3)C2)C1 [Example 801, (1R,3S,5R)-2-(((3S)-1-((3-cyano-1-azetidinyl)sulfonyl)-3-piperidinyl)carbonyl)-N-(4-(trifluoromethyl)benzyl)-2-azabicyclo[3.1.0]hexane-3-carboxamide]
9.6005 | CN(C)S(=O)(=O)c1cccc(C(=O)N2CCC[C@@H]2C(=O)N[C@H](c2ccc(C(F)(F)F)cc2F)C2CC2)c1 [Example 802, N-((S)-cyclopropyl(2-fluoro-4-(trifluoromethyl)phenyl)methyl)-1-(3-(dimethylsulfamoyl)benzoyl)-D-prolinamide]
9.622 | C[C@H](NC(=O)[C@H]1CCCN1C(=O)[C@H]1CCCN(S(=O)(=O)N2CC(C#N)C2)C1)c1ccc(Cl)cc1 [Example 803, N-((1S)-1-(4-chlorophenyl)ethyl)-1-(((3S)-1-((3-cyano-1-azetidinyl)sulfonyl)-3-piperidinyl)carbonyl)-D-prolinamide]
9.7525 | CCC(NC(=O)[C@H]1CCCN1C(=O)[C@H]1CCCN(S(=O)(=O)N2CC(C#N)C2)C1)c1ccccc1OC (stereo partly drawn) [Example 804, (2R)-1-((S)-1-((3-cyanoazetidin-1-yl)sulfonyl)piperidine-3-carbonyl)-N-(1-(2-methoxyphenyl)propyl)pyrrolidine-2-carboxamide]
9.817 | CS(=O)(=O)c1cc(C(=O)N2CCC[C@@H]2C(=O)N[C@@H](c2ccc(C(F)(F)F)cc2F)C2CC2)ccc1N [Example 805, 1-(4-amino-3-(methylsulfonyl)benzoyl)-N-((R)-cyclopropyl(2-fluoro-4-(trifluoromethyl)phenyl)methyl)-D-prolinamide]
10 | CC(=O)N1CC(NS(=O)(=O)N2CCC[C@H](C(=O)N3CCC[C@@H]3C(=O)NCc3ccc(C(F)(F)F)cc3)C2)C1 [Example 806, 1-(((3S)-1-((l-acetyl-3-azetidinyl)sulfamoyl)-3-piperidinyl)carbonyl)-N-(4-(trifluoromethyl)benzyl)-D-prolinamide]
4.609 | CC(C)[C@@H](NC(=O)[C@H]1CCCN1C(=O)c1cccc(S(C)(=O)=O)c1)c1ccc(C(F)(F)F)cc1F [Example 807, N-((1R)-1-(2-fluoro-4-(trifluoromethyl)phenyl)-2-methylpropyl)-1-(3-(methylsulfonyl)benzoyl)-D-prolinamide]
4.6765 | COc1ccc(S(C)(=O)=O)cc1C(=O)N1[C@@H](C(=O)N[C@@H](c2ccc(C(F)(F)F)cc2)C2COC2)C[C@H]2C[C@H]21 [Example 808, (1R,3R,5R)-2-(2-methoxy-5-(methylsulfonyl)benzoyl)-N-((R)-3-oxetanyl(4-(trifluoromethyl)phenyl)methyl)-2-azabicyclo[3.1.0]hexane-3-carboxamide]
4.951 | CS(=O)(=O)c1cncc(C(=O)N2CCC[C@@H]2C(=O)NC(c2ccc(C(F)(F)F)cc2F)C2CC2)c1 (stereo partly drawn) [Example 809, (2R)-N-(cyclopropyl(2-fluoro-4-(trifluoromethyl)phenyl)methyl)-1-(5-(methylsulfonyl)nicotinoyl)pyrrolidine-2-carboxamide]
